Where two headings read alike, the source gives them in different places.
Experiments:
[1] = tested on: melanoma cell line B16BL6; assay: Cancer cell mobility test (cancer invasion inhibitory action), Boyden double chamber with Matrigel/fibronectin; type: cell-based; conditions: for Tumor Invasion (cell/mm^2) 5 μM / Tumor Invasion (cell/mm^2) 20 μM: administered to cells 18 hours in advance, B16BL6, counted after 3.5 hours; for activity at 20 µM: Mus musculus
Experimental: (§1) A Boyden double chamber was used, in which a porous film with 8 μm pores was placed, the upper surface of the porous film being coated with Matrigel as a reconstructed membrane, the lower surface of the porous film being coated with fibronectin as an extracellular matrix. In the upper compartment of the chamber, 200,000 cells of melanoma cell line B16BL6, a type of skin cancer, were inoculated, and after 3.5 hours, Diff Quick staining was performed and the number of invasive cancer cells invading the lower compartment was counted using a CCD camera/multibioscanner. The compounds of the present invention were administered to cancer cells for 18 hours in advance at amounts of 5 μM and 20 μM.

[2] = tested on: B-16 melanoma cell line BL; assay: Cancer metastasis inhibitory action test (in vivo), lung metastasis after caudal vein injection of melanoma cells; conditions: lungs on day 14, mean of 6 mice
Experimental: Cancer cells of B-16 melanoma cell line BL were incubated in a 5% CO2 incubator using an MEM culture medium (containing 10% FBS), and the individual cells were dissociated with a 2.5% trypsin solution. The melanoma cells were injected into the caudal vein of BDF1 mice (SPF). The number of cells injected was 2×10^5/0.2 ml/mouse. As test compounds for cancer metastasis inhibitory action, 15-hydroxypentadecanoic acid, 15-pentadecanolide, and 5-cyclohexadecen-1-one were used, and as a positive control compound, Mitomycin Kyowa S (manufactured by Kyowa Hakko Kokyo Co., Ltd.) was used. The test compounds and the positive control compound were dissolved or suspended in olive oil and administered as shown in Table 5 below. (In the case of intravenous administration, micellisation was performed using Tween before administration.) The dosage of the test compounds was 100 mg/kg each time in the case of peritoneal administration, and 10 mg/kg each time in the case of intravenous administration. The dosage of Mitomycin Kyowa S as the positive control compound was 0.5 mg/kg each time by peritoneal administration.
From day 10 post-implant onward, metastatic cancer cells of mice in the satellite group were observed, and on day 14 when the size of the cells was believed to be suitable for evaluation, the mice were sacrificed and the lungs were enucleated. The number of metastatic cancer cells was then counted.

[3] = tested on: human fibrosarcoma cell line HT1080; assay: Cancer cell mobility test (cancer invasion inhibitory action), Boyden double chamber with Matrigel/fibronectin; type: cell-based; conditions: for Tumor Invasion (cell/mm^2) 5 μM / Tumor Invasion (cell/mm^2) 10 μM: administered to cells 18 hours in advance, HT1080, counted after 3.5 hours; for Cell Invasion Rate at 10 μM (%): relative to no addition = 100%, lower value = higher inhibition
Experimental: as §1, with “of human fibrosarcoma” for “of melanoma”, “line HT1080” for “line B16BL6, a type of skin cancer,”, “and 10” for “and 20”

[4] = tested on: melanoma cell line B16BL6; conditions: comparison derivatives of L-ascorbic acid (JP-A-8-291075); cited from earlier work
[5] = tested on: adenocarcinoma 755 cell line; assay: Test for action of killing cancer (in vivo), subcutaneous tumor weight; design: species or system mice; conditions: subcutaneous injection daily at 10 mg/kg for 5 days; tumors excised day 10 post-implant; control group 9.0 g
Experimental: In the backs of 6-week-old mice (first filial hybrid of C57BL/6 and DBA/2), 10^6 cells of adenocarcinoma 755 cell line were subcutaneously implanted. After 24 hours, a solution in which each sample was suspended, at a concentration of 50 mg/ml, in a physiological saline solution of 0.25% surfactant Nikkol HCO-60 (manufactured by Nikko Chemicals Co., Ltd.; polyoxyethylene (40) hydrogenated castor oil), was subcutaneously injected into a group of 8 mice, daily at 10 mg/kg for 5 days. On day 10 post-implant of adenocarcinoma 755 cells, the mice were sacrificed and tumors were excised. The average weight (g) of the tumors was obtained. As a result, the average weight of the control group was 9.0 g, while the average weight of the group to which 5-cyclohexadecen-1-one had been administered was as small as 1.9 g. The significant action of killing cancer was thus confirmed.

[6] = tested on: Rat spontaneous mammary cancer cells (SST-2); assay: Cancer metastasis inhibitory action test (in vivo), lung metastasis of subcutaneously implanted SST-2; conditions: day 7 pre-implant to day 34 post-implant; for Average number of metastatic colonies formed: lung, after 35 days; for Lung weight / Subcutaneous tumor weight: sacrifice after 35 days
Experimental: Rat spontaneous mammary cancer cells (SST-2) (1×10^5 cells) were subcutaneously implanted in the backs of Wister male rats (5 rats for each group). After 35 days, the rats were sacrificed, and the lung weight and the number of colonies formed were measured to observe the extent of lung metastasis of the SST-2. With respect to the groups to which 5-cyclohexadecen-1-one as the compound of the present invention was administered, 20 mg/rat and 5 mg/rat were orally administered and subcutaneously injected, from day 7 pre-implant to day 34 post-implant, and the subcutaneous tumor weight, the lung weight, and the number of metastatic colonies formed were compared with those of the control group, to which no treatment was provided.

[7] = B16-BL6, 20 μM, relative to no addition = 100%, lower value = higher inhibition, read-out: Cell Invasion Rate at 20 μM (%)
[8] = Peritoneal administration, 100 mg/kg each time
[9] = Subcutaneous injection 5 mg/rat
[10] = Subcutaneous injection 20 mg/rat
[11] = B16-BL6, read-out: Cell Invasion Rate at 20 μM (%)

Compound | Tumor Invasion (cell/mm^2) 5 μM [1] [cell/mm^2] | Tumor Invasion (cell/mm^2) 20 μM ([1]; 20 μM) [cell/mm^2] | activity at 20 µM [1, 7] [%] | Tumor Invasion (cell/mm^2) 5 μM [3] [cell/mm^2] | Tumor Invasion (cell/mm^2) 10 μM [3] [cell/mm^2] | Cell Invasion Rate at 10 μM (%) [3] [%] | further results
O=C1CCCCCCCC=CCCCCCCO1 [9-hexadecen-16-olide] | 257 ± 42 | 113 ± 19 | 22.5 | – | – | – | –
O=C1CCCCCCCCCCCCCCO1 [15-pentadecanolide] | 386 ± 26 | 324 ± 27 | 64.4 | – | – | – | Number of metastatic cells ([2]; Intravenous administration, 10 mg/kg each time, 3 times on day of implantation): 52.2; Number of metastatic cells [2, 8]: 134.3
O=C(O)CCCCCCCCCCCC(=O)CCCO [16-hydroxy-13-oxohexadecanoic acid] | – | – | – | 214 | 121 | 31.8 | –
12-oxahexadecen-16-olide | – | – | – | 218 | 109 | 20.8 | –
CCCCCCCCCCCCCCCC(=O)OC[C@H](O)[C@H]1OC(=O)C(O)=C1O [L-ascorbyl 6-O-palmitate] | – | – | – | – | – | – | concentration at which a 25% cancer cell invasion inhibition was obtained [4]: approximately 110 μM
CNC(=O)[C@@H](NC(=O)[C@H](CC(C)C)[C@H](O)C(=O)NO)C(C)(C)C [Marimastat, reference compound] | – | – | – | 269 | 172 | 42.6 | –
O=C1CCCC=CCCCCCCCCCC1 [5-cyclohexadecen-1-one] | 285 ± 36 | 143 ± 14 | 31.6 | – | – | – | average weight of the tumors [5]: 1.9 g; Average number of metastatic colonies formed ([6]; Oral administration 5 mg/rat): 28.4; Lung weight ([6]; Oral administration 5 mg/rat): 1.5 g; Subcutaneous tumor weight ([6]; Oral administration 5 mg/rat): 46.4 g; Average number of metastatic colonies formed ([6]; Oral administration 20 mg/rat): 17.5; Lung weight ([6]; Oral administration 20 mg/rat): 1.4 g; Subcutaneous tumor weight ([6]; Oral administration 20 mg/rat): 44.7 g; Average number of metastatic colonies formed [6, 9]: 15.7; Lung weight [6, 9]: 1.3 g; Subcutaneous tumor weight [6, 9]: 43.5 g; Average number of metastatic colonies formed [6, 10]: 10.9; Lung weight [6, 10]: 1.1 g; Subcutaneous tumor weight [6, 10]: 42.0 g; Number of metastatic cells [2, 8]: 35.6
CO[C@@]12[C@H](COC(N)=O)C3=C(C(=O)C(C)=C(N)C3=O)N1C[C@@H]1N[C@@H]12 [Mitomycin, reference compound] | – | – | – | – | – | – | Number of metastatic cells ([2]; Peritoneal administration, 0.5 mg/kg each time, 3 times on day of implantation): 21.2
O=C1CCCCCCCCCCCCCC1 [Cyclopentadecanone] | 459 ± 39 | 491 ± 35 | – | – | – | – | activity at 20 µM [1, 11]: 109%
O=C1CCCCCCCCCCCO1 [12-dodecanolide] | 405 ± 38 | 461 ± 67 | 91.7 | – | – | – | –
O=C1CCCCCCCCCCCCCCCO1 [16-hexadecanolide] | 370 ± 62 | 293 ± 43 | 58.3 | – | – | – | –
O=C(O)CCCCCCCCCCCO [12-hydroxydodecanoic acid] | 324 ± 23 | 246 ± 30 | – | – | – | – | activity at 20 µM [1, 11]: 48.9%
11(12)-pentadecen-15-olide | 234 ± 17 | 146 ± 31 | – | – | – | – | Cell Invasion Rate at 20 μM (%) ([1]; 20 μM, relative to no addition = 100%, lower value = higher inhibition): 29.0%
O=C(O)CCCCCCCCCCCCCCO [15-hydroxypentadecanoic acid] | 289 ± 45 | 135 ± 11 | 26.8 | – | – | – | Number of metastatic cells [2, 8]: 78.0
O=C1O[C@H]([C@@H](O)CO)C(O)=C1OP(=O)(O)O [L-ascorbyl 2-phosphate] | – | – | – | – | – | – | concentration at which a 25% cancer cell invasion inhibition was obtained [4]: approximately 280 μM
O=C(O)CCCCCCCCCCC(=O)CCCO [15-hydroxy-12-oxopentadecanoic acid] | 268 ± 34 | 119 ± 25 | 23.7 | – | – | – | –
CCCCCCCCCCCC1CCCC(=O)O1 (centres unmarked) [5-hexadecanolide] | – | – | – | 144 | 111 | 27.5 | –
CCOC(=O)CCCCCCCCCC=CCCCO [ethyl-15-hydroxy-11(12)-pentadecenoate] | – | – | – | 129 | 106 | 28.6 | –
O=C1CCCCCCCCCCCC(=O)OCCO1 [Ethylene tridecanedioate] | – | – | – | 226 | 84 | 16.0 | –
O=C(O)CCCCCCCCCCCCCCCO [16-hydroxyhexadecanoic acid] | 301 ± 47 | 199 ± 32 | – | – | – | – | activity at 20 µM [1, 11]: 39.6%

Source: patent US6639089B2, “Anticancer agents, perfumes or foods and drinks” (Soda Aromatic Co., Ltd., priority 2001, dated 2003)
